Test results: patent US12240839B2, “Cyclobutyl dihydroquinoline sulfonamide compounds” (AMGEN INC., priority 2020, dated 2025)
pIC50: −log10 of the molar value. Where two headings read alike, the source gives them in different places.

What was measured:
Human Nav1.7 = Human Nav1.7 (Homo sapiens (Human), UniProt Q15858); experiment: IonWorks Barracuda (IWB) automated patch clamp assay; type: cell-based; conditions: human Nav1.7 in HEK cells, population patch-clamp, state- and use-dependent voltage protocol; read-out: hNaV1.7 IWB-U IC50
Method: IonWorks Barracuda (IWB) Automated Patch Clamp Assay (Same Protocol for Both Human and Mouse)
Human Nav1.7 currents were recorded in population patch-clamp mode with the IWB automated electrophysiology system (Molecular Devices, LLC, Sunnyvale, CA). Spiking HEK cells (without Kir2.1 transfection) were cultured and prepared for recordings as previously described for IonWorks Quattro testing^1. The external solution consisted of the following (in mM): NaCl 140, KCl 5, CaCl2 2, MgCl2 1, HEPES 10, and glucose 11, pH 7.4, with N-methyl-D-glucamine at 320 mOsmol. […] From a holding potential of −110 mV, currents were elicited by a train of 26 depolarizations of 150 ms duration to −20 mV at a frequency of 5 Hz. Cells were then clamped to −20 mV for a period of 4 minutes in the presence of a single concentration of test compound. Following this compound incubation period, cells were clamped to −110 mV for three seconds to recover unbound channels and put through the same 26 pulse voltage protocol as above. Peak inward current during the 26th pulse to −20 mV in the presence of compound was divided by the peak inward current evoked by the 26th pulse to −20 mV in the absence of compound to determine percent inhibition. Concentration-response curves of percent inhibition as a function of concentration were generated to calculate IC50 values as described in Kornecook, T. J.; Yin, R.; Altmann, S.; et al. Pharmacologic Characterization of AMG8379, a Potent and Selective Small Molecule Sulfonamide Antagonist of the Voltage-Gated Sodium Channel NaV1. 7.
The potency of the compounds of the present invention were evaluated on human Nav1.7 channels using the above described IonWorks Barracuda automated electrophysiology platform that evaluates the ability of compounds to block sodium conductance through Nav1.7 channels. A voltage-protocol that prosecutes both state-dependent as well as use-dependent inhibition was used as these modes of action are thought to be more relevant for the native state of Nav1.7 channels in pain sensing neurons in vivo.

CYP3A4 [1] = experiment: Human CYP3A4 induction assay (mRNA, cryopreserved human hepatocytes); conditions: 10 uM test compound, 72 hours, percent of control (rifampin positive control)
Method: Human CYP3A4 Induction Assay
(§1) Cryopreserved human hepatocytes were seeded in 96-well collagen coated plates at 70,000 cells per well in hepatocyte plating media (HPM, final concentrations: 1× Dulbecco's Modified Eagle's Medium, 0.1 μM dexamethasone, 10% fetal bovine serum, 1×ITS, 1×PSG) followed by incubation at 37° C. under 5% CO2 and 90% relative humidity for 2 days to allow hepatocytes to form a confluent layer. On Day 3, hepatocytes were treated with either test compound or rifampin (20 μM, positive control for CYP3A induction) prepared in hepatocyte incubation media ((HIM, final concentrations: 1× William's Medium E, 0.1 μM dexamethasone, 1×ITS, 1×PSG). Treatment was performed for 72 hours with either 2 concentrations (2 μM or 10 μM) or a range of concentrations (0.001 μM to 100 μM) of the test compound to obtain full dose-response curve. Fresh media containing the relevant concentrations of the test compound was replaced every day until the samples were processed. After 72 hours of incubation, samples were processed for mRNA analysis using bDNA technology using manufacturer's instructions (Affymetrix, Fremont, CA). Cell viability was tested at the end of the experiment using MTT assay kit (Roche Diagnostics, Basel, Switzerland). Data was analyzed and presented as percent of control (POC) and Emax and EC50 obtained when appropriate according to guidance from Center for Drug Evaluation and Research (CDER), 2006, Guidance for Industry, Drug Interaction Studies—Study Design, Data Analysis, and Implications for Dosing and Labeling.

CYP3A4 [2] = conditions: hepatocytes
Method: Human CYP3A4 Induction Assay
as §1

Human Nav1.7, sequence (Q15858 whole entry): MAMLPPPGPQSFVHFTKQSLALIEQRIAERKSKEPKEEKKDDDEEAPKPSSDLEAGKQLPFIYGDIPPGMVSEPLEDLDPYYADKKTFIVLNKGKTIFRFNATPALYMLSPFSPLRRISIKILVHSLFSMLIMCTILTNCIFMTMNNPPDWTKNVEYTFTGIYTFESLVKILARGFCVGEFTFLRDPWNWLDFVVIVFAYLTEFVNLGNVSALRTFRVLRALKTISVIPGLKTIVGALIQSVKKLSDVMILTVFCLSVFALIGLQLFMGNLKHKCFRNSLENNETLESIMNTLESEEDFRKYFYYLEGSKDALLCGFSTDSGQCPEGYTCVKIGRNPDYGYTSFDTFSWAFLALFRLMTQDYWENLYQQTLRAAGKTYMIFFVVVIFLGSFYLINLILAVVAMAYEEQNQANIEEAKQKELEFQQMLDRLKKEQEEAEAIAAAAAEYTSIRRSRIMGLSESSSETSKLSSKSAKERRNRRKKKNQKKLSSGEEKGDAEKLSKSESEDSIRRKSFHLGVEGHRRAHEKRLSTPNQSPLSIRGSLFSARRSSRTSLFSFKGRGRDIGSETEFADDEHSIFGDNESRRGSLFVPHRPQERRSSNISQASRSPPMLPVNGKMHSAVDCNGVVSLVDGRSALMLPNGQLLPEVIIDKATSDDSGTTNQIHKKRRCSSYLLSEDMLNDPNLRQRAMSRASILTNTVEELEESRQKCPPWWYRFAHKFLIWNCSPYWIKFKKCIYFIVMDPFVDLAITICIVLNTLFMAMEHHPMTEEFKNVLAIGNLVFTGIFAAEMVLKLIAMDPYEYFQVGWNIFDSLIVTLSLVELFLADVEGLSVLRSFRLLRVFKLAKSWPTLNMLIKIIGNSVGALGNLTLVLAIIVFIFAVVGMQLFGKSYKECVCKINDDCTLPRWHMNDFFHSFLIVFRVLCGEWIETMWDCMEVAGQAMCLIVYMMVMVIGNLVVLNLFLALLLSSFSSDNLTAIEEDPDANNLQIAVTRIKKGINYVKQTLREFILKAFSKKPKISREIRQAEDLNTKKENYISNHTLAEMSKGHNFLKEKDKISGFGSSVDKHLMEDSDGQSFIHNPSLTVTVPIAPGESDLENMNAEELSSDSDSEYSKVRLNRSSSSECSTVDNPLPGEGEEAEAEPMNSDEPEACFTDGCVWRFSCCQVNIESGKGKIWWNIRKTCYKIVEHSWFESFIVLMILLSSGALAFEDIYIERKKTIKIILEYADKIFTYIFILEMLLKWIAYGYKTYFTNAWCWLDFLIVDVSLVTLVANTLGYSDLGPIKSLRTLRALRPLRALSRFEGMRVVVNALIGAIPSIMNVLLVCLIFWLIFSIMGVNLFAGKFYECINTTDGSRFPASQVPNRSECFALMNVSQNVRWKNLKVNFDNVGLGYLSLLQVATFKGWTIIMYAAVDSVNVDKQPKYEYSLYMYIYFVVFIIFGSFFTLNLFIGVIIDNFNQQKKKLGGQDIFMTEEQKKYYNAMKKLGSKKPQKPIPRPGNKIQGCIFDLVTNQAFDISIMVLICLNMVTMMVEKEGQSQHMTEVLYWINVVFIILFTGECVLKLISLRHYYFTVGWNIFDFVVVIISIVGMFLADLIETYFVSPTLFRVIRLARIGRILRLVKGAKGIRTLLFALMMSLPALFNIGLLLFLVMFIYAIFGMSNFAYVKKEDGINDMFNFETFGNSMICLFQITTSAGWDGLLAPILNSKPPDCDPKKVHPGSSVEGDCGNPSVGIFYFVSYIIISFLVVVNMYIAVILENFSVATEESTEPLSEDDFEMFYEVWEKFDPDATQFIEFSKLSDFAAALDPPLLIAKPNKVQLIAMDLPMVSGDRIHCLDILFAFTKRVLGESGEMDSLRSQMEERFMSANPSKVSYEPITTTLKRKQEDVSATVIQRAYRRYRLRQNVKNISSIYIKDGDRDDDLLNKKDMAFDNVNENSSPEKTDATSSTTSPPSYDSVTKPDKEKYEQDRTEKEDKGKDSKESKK

COc1cc(C2CC(OC(F)(F)F)C2)c(F)cc1-n1c(=O)ccc2cc(S(=O)(=O)Nc3ccon3)ccc21 (single isomer, unassigned) [Example 44, cis-(P)-1-(5-fluoro-2-methoxy-4-(3-(trifluoromethoxy)cyclobutyl)phenyl)-N-(isoxazol-3-yl)-2-oxo-1,2-dihydroquinoline-6-sulfonamide]
pIC50 (Human Nav1.7): 8.15

COc1cc([C@H]2C[C@H](C(F)(F)F)C2)c(C)cc1-n1c(=O)ccc2cc(S(=O)(=O)Nc3ncccn3)ccc21 (atropisomer, axis not shown; (P)) [Example 37, trans-(P)-1-(2-methoxy-5-methyl-4-(3-(trifluoromethyl)cyclobutyl)phenyl)-2-oxo-N-(pyrimidin-2-yl)-1,2-dihydroquinoline-6-sulfonamide]
pIC50 (Human Nav1.7): 7.21

COc1cc([C@H]2C[C@H](C(F)(F)F)C2)c(Cl)cc1-n1c(=O)ccc2cc(S(=O)(=O)Nc3ccon3)ccc21 (single isomer, unassigned) [Example 13]
pIC50 (Human Nav1.7): 8.22
Hu CYP3A4 mRNA Induction (10 uM POC) (CYP3A4 [1]): 46.85%

COc1cc(C2CC(C(C)(C)C)C2)c(F)cc1-n1c(=O)ccc2cc(S(=O)(=O)Nc3ccon3)ccc21 (racemic) [Example 2, 1-(4-(3-(tert-butyl)cyclobutyl)-5-fluoro-2-methoxyphenyl)-N-(isoxazol-3-yl)-2-oxo-1,2-dihydroquinoline-6-sulfonamide]
pIC50 (Human Nav1.7): 7.60

COc1cc([C@H]2C[C@H](C(F)(F)F)C2)c(F)cc1-n1c(=O)ccc2cc(S(=O)(=O)Nc3ccon3)ccc21 (single isomer, unassigned) [Example 7, trans-(P)-1-(5-fluoro-2-methoxy-4-(3-(trifluoromethyl)cyclobutyl)phenyl)-N-(isoxazol-3-yl)-2-oxo-1,2-dihydroquinoline-6-sulfonamide]
pIC50 (Human Nav1.7): 8.15
Hu CYP3A4 mRNA Induction (10 uM POC) (CYP3A4 [1]): 16.35%

COc1cc(C2CC(C(F)(F)F)C2)c(F)cc1-n1c(=O)ccc2cc(S(=O)(=O)Nc3ccon3)ccc21 (atropisomer, axis not shown; (P)) [Example 6, cis-(P)-1-(5-fluoro-2-methoxy-4-(3-(trifluoromethyl)cyclobutyl)phenyl)-N-(isoxazol-3-yl)-2-oxo-1,2-dihydroquinoline-6-sulfonamide]
pIC50 (Human Nav1.7): 7.96

COc1cc([C@H]2C[C@H](C(F)(F)F)C2)ccc1-n1c(=O)ccc2cc(S(=O)(=O)Nc3ncccn3)ccc21 (atropisomer, axis not shown; (P)) [Example 36, trans-(P)-1-(2-methoxy-4-((1R,3R)-3-(trifluoromethyl)cyclobutyl)phenyl)-2-oxo-N-(pyrimidin-2-yl)-1,2-dihydroquinoline-6-sulfonamide]
Hu CYP3A4 mRNA Induction (10 uM POC) (CYP3A4 [1]): 19.16%

COc1cc([C@H]2C[C@H](C(F)(F)F)C2)c(F)cc1-n1c(=O)ccc2cc(S(=O)(=O)Nc3ncco3)ccc21 (atropisomer, axis not shown; (P)) [Example 43, (P)-1-(5-fluoro-2-methoxy-4-(3-(trifluoromethyl)cyclobutyl)phenyl)-N-(oxazol-2-yl)-2-oxo-1,2-dihydroquinoline-6-sulfonamide]
Hu CYP3A4 mRNA Induction (10 uM POC) (CYP3A4 [1]): 68.28%

COc1cc([C@H]2C[C@H](C(F)(F)F)C2)ccc1-n1c(=O)ccc2cc(S(=O)(=O)Nc3ccon3)ccc21 (atropisomer, axis not shown; (P)) [Example 35, trans-(P)—N-(isoxazol-3-yl)-1-(2-methoxy-4-(3-(trifluoromethyl)cyclobutyl)phenyl)-2-oxo-1,2-dihydroquinoline-6-sulfonamide]
Hu CYP3A4 mRNA Induction (10 uM POC) (CYP3A4 [1]): 13.33%

COc1cc([C@H]2C[C@@](F)(C(F)(F)F)C2)c(F)cc1-n1c(=O)ccc2cc(S(=O)(=O)Nc3ccon3)ccc21 (atropisomer, axis not shown; (P)) [Example 8, trans-(P)-1-(5-fluoro-4-(3-fluoro-3-(trifluoromethyl)cyclobutyl)-2-methoxyphenyl)-N-(isoxazol-3-yl)-2-oxo-1,2-dihydroquinoline-6-sulfonamide]
Hu CYP3A4 mRNA Induction (10 uM POC) (CYP3A4 [2]): 10.51%

COc1cc(C2CCC2)c(F)cc1-n1c(=O)ccc2cc(S(=O)(=O)Nc3ncco3)ccc21 (atropisomer, axis not shown; (P)) [Example 24, (P)-1-(4-cyclobutyl-5-fluoro-2-methoxyphenyl)-N-(oxazol-2-yl)-2-oxo-1,2-dihydroquinoline-6-sulfonamide]
Hu CYP3A4 mRNA Induction (10 uM POC) (CYP3A4 [1]): 89.26%

COc1cc([C@H]2C[C@H](OC(F)(F)F)C2)c(F)cc1-n1c(=O)ccc2cc(S(=O)(=O)Nc3ccon3)ccc21 (single isomer, unassigned) [Example 45, trans-(P)-1-(5-fluoro-2-methoxy-4-(3-(trifluoromethoxy)cyclobutyl)phenyl)-N-(isoxazol-3-yl)-2-oxo-1,2-dihydroquinoline-6-sulfonamide]
Hu CYP3A4 mRNA Induction (10 uM POC) (CYP3A4 [1]): 36.685%

COc1cc([C@H]2C[C@H](C(F)(F)F)C2)c(F)cc1-n1c(=O)ccc2cc(S(=O)(=O)Nc3ncccn3)ccc21 (atropisomer, axis not shown; (P)) [Example 15, trans-(P)-1-(5-fluoro-2-methoxy-4-(3-(trifluoromethyl)cyclobutyl)phenyl)-2-oxo-N-(pyrimidin-2-yl)-1,2-dihydroquinoline-6-sulfonamide]
Hu CYP3A4 mRNA Induction (10 uM POC) (CYP3A4 [1]): 36%

COc1cc(C2CC(C(F)(F)F)C2)c(Cl)cc1-n1c(=O)ccc2cc(S(=O)(=O)Nc3ccon3)ccc21 (atropisomer, axis not shown; (P)) [Example 12, cis-(P)-1-(5-chloro-2-methoxy-4-((1S,3S)-3-(trifluoromethyl)cyclobutyl)phenyl)-N-(isoxazol-3-yl)-2-oxo-1,2-dihydroquinoline-6-sulfonamide]
pIC50 (Human Nav1.7): 8.15

COc1cc(C2CC(F)(F)C2)c(F)cc1-n1c(=O)ccc2cc(S(=O)(=O)Nc3ccon3)c(F)cc21 (atropisomer, axis not shown; (P)) [Example 41, (P)-1-(4-(3,3-difluorocyclobutyl)-5-fluoro-2-methoxyphenyl)-7-fluoro-N-(isoxazol-3-yl)-2-oxo-1,2-dihydroquinoline-6-sulfonamide]
Hu CYP3A4 mRNA Induction (10 uM POC) (CYP3A4 [1]): 52.8%

COc1cc(C2CCC2)c(F)cc1-n1c(=O)ccc2cc(S(=O)(=O)Nc3ncccn3)ccc21 (atropisomer, axis not shown; (P)) [Example 28, (P)-1-(4-cyclobutyl-5-fluoro-2-methoxyphenyl)-2-oxo-N-(pyrimidin-2-yl)-1,2-dihydroquinoline-6-sulfonamide]
Hu CYP3A4 mRNA Induction (10 uM POC) (CYP3A4 [1]): 60.29%

COc1cc(C2CCC2)ccc1-n1c(=O)ccc2cc(S(=O)(=O)Nc3ncccn3)ccc21 (atropisomer, axis not shown; (P)) [Example 26, (P)-1-(4-cyclobutyl-2-methoxyphenyl)-2-oxo-N-(pyrimidin-2-yl)-1,2-dihydroquinoline-6-sulfonamide]
Hu CYP3A4 mRNA Induction (10 uM POC) (CYP3A4 [1]): 14.58%

COc1cc([C@H]2C[C@H](C(F)(F)F)C2)c(Cl)cc1-n1c(=O)ccc2cc(S(=O)(=O)Nc3ccon3)ccc21 (single isomer, unassigned) [Example 12]
Hu CYP3A4 mRNA Induction (10 uM POC) (CYP3A4 [1]): 68.98%

COc1cc([C@H]2C[C@H](C(F)(F)F)C2)c(F)cc1-n1c(=O)ccc2cc(S(=O)(=O)Nc3cccnn3)ccc21 (atropisomer, axis not shown; (P)) [Example 39, trans-(P)-1-(5-fluoro-2-methoxy-4-(3-(trifluoromethyl)cyclobutyl)phenyl)-2-oxo-N-(pyridazin-3-yl)-1,2-dihydroquinoline-6-sulfonamide]
Hu CYP3A4 mRNA Induction (10 uM POC) (CYP3A4 [1]): 21.68%

COc1cc([C@H]2C[C@](F)(C(F)(F)F)C2)c(Cl)cc1-n1c(=O)ccc2cc(S(=O)(=O)Nc3ccon3)ccc21 (atropisomer, axis not shown; (P)) [Example 10, cis-(P)-1-(5-chloro-4-(3-fluoro-3-(trifluoromethyl)cyclobutyl)-2-methoxyphenyl)-N-(isoxazol-3-yl)-2-oxo-1,2-dihydroquinoline-6-sulfonamide]
Hu CYP3A4 mRNA Induction (10 uM POC) (CYP3A4 [1]): 5.66%
